Assay results reported in ChEMBL document CHEMBL4651402, “Screening of ~5500 FDA-approved drugs and clinical candidates for anti-SARS-CoV-2 activity” (2021).

System: SARS-CoV-2
Assay: microbe, parasite or virus in culture
Conditions: Severe acute respiratory syndrome coronavirus 2, Vero C1008, 48 h

| SMILES | IC50 | IC50 (read-out: pIC50 (converted)) |
| --- | --- | --- |
| Nc1c(CC(=O)O)cccc1C(=O)c1ccc(Br)cc1 [BROMFENAC] | > 20 µM | > 20 µM |
| CN(Cc1cc(Br)cc(Br)c1N)C1CCCCC1 [BROMHEXINE] | > 20 µM | > 20 µM |
| O=C1c2ccccc2C(=O)C1c1ccc(Br)cc1 [BROMINDIONE] | > 20 µM | > 20 µM |
| CC(C)C(Br)C(=O)NC(N)=O (configuration not stated) [BROMISOVALUM] | > 20 µM | > 20 µM |
| O=C(Nc1ccc(Cl)cc1)c1cc(Br)ccc1O [BROMOCHLOROSALICYLANILIDE] | > 20 µM | > 20 µM |
| O=C(NO)c1cc(Br)ccc1O [BROMOCYL] | > 20 µM | > 20 µM |
| CCN(CC)CCNC(=O)c1cc(Br)c(N)cc1OC [BROMOPRIDE] | > 20 µM | > 20 µM |
| O=C(O)C(=O)CBr [BROMOPYRUVATE] | > 20 µM | > 20 µM |
| O=C(CCCN1CCC(O)(c2ccc(Br)cc2)CC1)c1ccc(F)cc1 [BROMPERIDOL] | > 20 µM | > 20 µM |
| CN(C)CCC(c1ccc(Br)cc1)c1ccccn1 (configuration not stated) [BROMPHENIRAMINE] | > 20 µM | > 20 µM |
| Cc1nnc2n1-c1sc(Br)cc1C(c1ccccc1Cl)=NC2 [BROTIZOLAM] | > 20 µM | > 20 µM |
| Cc1ccc2c(Br)cc(Br)c(OC(=O)c3ccccc3)c2n1 [BROXALDINE] | > 20 µM | > 20 µM |
| O=c1[nH]c(=O)n([C@H]2C[C@H](O)[C@@H](CO)O2)cc1Br [BROXURIDINE] | > 50.1 µM | > 50.1 µM |
| Oc1c(Br)cc(Br)c2cccnc12 [BROXYQUINOLINE] | > 20 µM | > 20 µM |
| COc1cc2c(cc1OC)[C@@]13CCN4CC5=CCO[C@H]6CC(=O)N2[C@H]1[C@H]6[C@H]5C[C@H]43 [BRUCINE] | > 20 µM | > 20 µM |
| Cn1ncc(-c2nc(N[C@H]3CC[C@H](N)CC3)ncc2Cl)c1CC1CC1 [BTX-A51] | > 20 µM | > 20 µM |
| CCOc1ccc(NC(=O)CC(C)O)cc1 (configuration not stated) [BUCETIN] | > 20 µM | > 20 µM |
| CCCC(=O)Nc1ncnc2c1ncn2[C@@H]1O[C@@H]2COP(=O)(O)O[C@H]2[C@H]1OC(=O)CCC [BUCLADESINE] | > 20 µM | > 20 µM |
| CCCCC1C(=O)NC(=O)N(C2CCCCC2)C1=O (configuration not stated) [BUCOLOME] | > 20 µM | > 20 µM |
| CCCCN(CCCC)CCCOc1c(C)cc(C(=O)c2cc(=O)c3ccccc3o2)cc1C [BUCROMARONE] | > 20 µM | > 20 µM |
| CCCC1O[C@@H]2C[C@H]3[C@@H]4CCC5=CC(=O)C=C[C@]5(C)[C@H]4[C@@H](O)C[C@]3(C)[C@]2(C(=O)CO)O1 (some centres not stated) [BUDESONIDE] | > 20 µM | > 20 µM |
| CCCCOc1ccc(CC(=O)NO)cc1 [BUFEXAMAC] | > 20 µM | > 20 µM |
| COc1cc(OC)c(C(=O)CCCN2CCCC2)c(OC)c1 [BUFLOMEDIL] | > 20 µM | > 20 µM |
| CCCCNC(=N)NC(=N)N [BUFORMIN] | > 20 µM | > 20 µM |
| CN(C)CCc1c[nH]c2ccc(O)cc12 [BUFOTENINE] | > 20 µM | > 20 µM |
| CCc1cccc2cc(C(O)CNC(C)(C)C)oc12 (configuration not stated) [BUFURALOL] | > 20 µM | > 20 µM |

| SMILES | IC50 | IC50 (read-out: pIC50 (converted)) |
| --- | --- | --- |
| CCCCOC(=O)NS(=O)(=O)c1sc(CC(C)C)cc1-c1ccc(Cn2ccnc2)cc1 [BULOXIBUTID] | > 20 µM | > 20 µM |
| CCCCC(C(=O)O)C(=O)N(Nc1ccccc1)c1ccccc1 (configuration not stated) [BUMADIZONE] | > 20 µM | > 20 µM |
| CCCCNc1cc(C(=O)O)cc(S(N)(=O)=O)c1Oc1ccccc1 [BUMETANIDE] | > 20 µM | > 20 µM |
| Cc1cc(-n2nc3ccc(Cl)cc3n2)c(O)c(C(C)(C)C)c1 [BUMETRIZOLE] | > 20 µM | > 20 µM |
| CCCCc1cc(OC)c2ccccc2c1OC(C)=O [BUNAPROLAST] | > 20 µM | > 20 µM |
| CC(C)(C)NCC(O)COc1ccccc1C#N (configuration not stated) [BUNITROLOL] | > 20 µM | > 20 µM |
| CN1CC[C@]2(C)c3cc(OC(=O)Nc4ccccc4)ccc3N(C)[C@H]12 [BUNTANETAP] | > 20 µM | > 20 µM |
| Nc1cc(C(F)(F)F)c(-c2cc(N3CCOCC3)nc(N3CCOCC3)n2)cn1 [BUPARLISIB] | > 20 µM | > 20 µM |
| CCCCN1CCCCC1C(=O)Nc1c(C)cccc1C (configuration not stated) [BUPIVACAINE] | > 20 µM | > 20 µM |
| CO[C@@]12CC[C@@]3(C[C@@H]1[C@](C)(O)C(C)(C)C)[C@H]1Cc4ccc(O)c5c4[C@@]3(CCN1CC1CC1)[C@H]2O5 [BUPRENORPHINE] | > 20 µM | > 20 µM |
| CC(NC(C)(C)C)C(=O)c1cccc(Cl)c1 (configuration not stated) [BUPROPION] | > 20 µM | > 20 µM |
| CCCCNC(=O)NC1CCN(c2ncnc3cc(OC)c(OC)cc23)CC1 [BUQUINERAN] | > 20 µM | > 20 µM |
| O=C(NCc1ccccc1)OCCO [BURAMATE] | > 20 µM | > 20 µM |
| O=C1CC2(CCCC2)CC(=O)N1CCCCN1CCN(c2ncccn2)CC1 [BUSPIRONE] | > 20 µM | > 20 µM |
| CS(=O)(=O)OCCCCOS(C)(=O)=O [BUSULFAN] | > 20 µM | > 20 µM |
| CCCCN(CCCC)CCCOC(=O)c1ccc(N)cc1 [BUTACAINE] | > 20 µM | > 20 µM |
| CC(=O)Nc1ccc(OC(C)(C)C)cc1 [BUTACETIN] | > 20 µM | > 20 µM |
| CCCCN(CCCC)CCNc1nc(-c2ccccc2)no1 [BUTALAMINE] | > 20 µM | > 20 µM |
| C=CCC1(CC(C)C)C(=O)NC(=O)NC1=O [BUTALBITAL] | > 20 µM | > 20 µM |
| CCCCOC(=O)c1ccc(N)cc1 [BUTAMBEN] | > 20 µM | > 20 µM |
| CCC(C(=O)OCCOCCN(CC)CC)c1ccccc1 (configuration not stated) [BUTAMIRATE] | > 20 µM | > 20 µM |
| O=C(c1ccc(F)cc1)C1CCN(CCCCn2c(=O)[nH]c3ccccc3c2=O)CC1 [BUTANSERIN] | > 20 µM | > 20 µM |
| CCCC(=O)c1ccc2c(c1)N(CCCN1CCN(C)CC1)c1ccccc1S2 [BUTAPERAZINE] | > 20 µM | > 20 µM |
| O=C(/C=C/c1ccc(O)c(O)c1)c1ccc(O)cc1O [BUTEIN] | > 20 µM | > 20 µM |
| CN(Cc1ccc(C(C)(C)C)cc1)Cc1cccc2ccccc12 [BUTENAFINE] | > 20 µM | > 20 µM |
| CCC(C(=O)OCCN(CC)CC)c1ccccc1 (configuration not stated) [BUTETAMATE] | > 20 µM | > 20 µM |

| SMILES | IC50 | IC50 (read-out: pIC50 (converted)) |
| --- | --- | --- |
| CCCCS(=N)(=O)CCC(N)C(=O)O (configuration not stated) [BUTHIONINE SULFOXIMINE] | > 20 µM | > 20 µM |
| Clc1ccc(CCC(Cn2ccnc2)Sc2c(Cl)cccc2Cl)cc1 (configuration not stated) [BUTOCONAZOLE] | > 20 µM | > 20 µM |
| CCCC(=O)c1cc(F)ccc1OCC(O)CNC(C)(C)C (configuration not stated) [BUTOFILOLOL] | > 20 µM | > 20 µM |
| Oc1ccc2c(c1)[C@@]13CCCC[C@@]1(O)[C@@H](C2)N(CC1CCC1)CC3 [BUTORPHANOL] | > 20 µM | > 20 µM |
| COc1ccc(OC)c(C(O)C(C)NC(C)(C)C)c1 (configuration not stated) [BUTOXAMINE] | > 20 µM | > 20 µM |
| CC(CC1c2ccccc2CCc2ccccc21)CN(C)C (configuration not stated) [BUTRIPTYLINE] | > 20 µM | > 20 µM |
| CCCCOC(=O)c1ccc(O)cc1 [BUTYLPARABEN] | > 20 µM | > 20 µM |
| CCCC[N+]1(C)[C@@H]2C[C@@H](OC(=O)[C@H](CO)c3ccccc3)C[C@H]1[C@@H]1O[C@@H]12 (some centres not stated) [BUTYLSCOPOLAMINE] | > 20 µM | > 20 µM |
| CCCC(=O)O [BUTYRIC ACID] | > 20 µM | > 20 µM |
| O=C1CCCO1 [BUTYROLACTONE] | > 20 µM | > 20 µM |
| C[N+]1(CCC(C(N)=O)(c2ccccc2)c2ccccc2)CCCCCC1 [BUZEPIDE] | > 20 µM | > 20 µM |
| C[C@@H]1CN(Cc2ccc(F)cc2)CCN1C(=O)COc1ccc(Cl)cc1NC(N)=O [BX 471 FREE BASE] | > 20 µM | > 20 µM |
| COc1cc2nccc(Oc3ccc(NC(=O)C4(C(=O)Nc5ccc(F)cc5)CC4)cc3)c2cc1OC [CABOZANTINIB] | > 20 µM | > 20 µM |
| O=C(O)c1cn(C2CC2)c2cc(N3CCC(O)(COc4ccc(N5C[C@H](CO)OC5=O)cc4F)CC3)c(F)cc2c1=O [CADAZOLID] | > 20 µM | > 20 µM |
| CC(=O)OC[C@@]1(O)C[C@@]23CC[C@@H]4c5ccoc5CC[C@@]4(C)[C@@H]2CC[C@@H]1C3 [CAFESTOL ACETATE] | > 20 µM | > 20 µM |
| C=C1/C(=C\C=C2/CCC[C@]3(C)[C@@H]([C@H](C)/C=C/[C@@H](O)C4CC4)CC[C@@H]23)C[C@@H](O)C[C@@H]1O [CALCIPOTRIENE] | > 20 µM | > 20 µM |
| O=S(=O)(O)c1cc(O)ccc1O [CALCIUM DOBESILATE] | > 20 µM | > 20 µM |
| CC[C@@]1(O)C(=O)OCc2c1cc1n(c2=O)Cc2cc3ccccc3nc2-1 [CAMPTOTHECIN] | > 20 µM | > 20 µM |
| CCN(CC)CCNC(C(=O)OCCC(C)C)c1ccccc1 (configuration not stated) [CAMYLOFIN] | > 20 µM | > 20 µM |
| Cc1ccc([C@@H]2O[C@H](CO)[C@@H](O)[C@H](O)[C@H]2O)cc1Cc1ccc(-c2ccc(F)cc2)s1 [CANAGLIFLOZIN ANHYDROUS] | > 20 µM | > 20 µM |
| NC(N)=NOCC[C@H](N)C(=O)O [CANAVANINE] | > 20 µM | > 20 µM |
| C=CC(=O)Nc1cc2c(Nc3ccc(F)c(Cl)c3)ncnc2cc1OCCCN1CCOCC1 [CANERTINIB] | > 20 µM | > 20 µM |
| C=C(C)[C@@H]1CCC(C)=C[C@H]1c1c(O)cc(CCCCC)cc1O [CANNABIDIOL] | > 20 µM | > 20 µM |
| C[C@]12CCC(=O)C=C1C=C[C@@H]1[C@@H]2CC[C@@]2(C)[C@H]1CC[C@@]21CCC(=O)O1 [CANRENONE] | > 20 µM | > 20 µM |
